Test results reported in patent US20090280069A1, “PROGUANIL TO TREAT SKIN/MUCOSAL DISEASES” (Tolmar, Inc., priority 2008, published 2009).
Where two headings read alike, the source gives them in different places.

Experiments:
[1] = system: C. minutissimum ATCC 23348; assay: time kill assay, C. minutissimum; format: cell-based, Corynebacterium minutissimum
Description: Corynebacterium minutissimum is the causative agent of erythrasma, a superficial infection of the skin characterized by slowly spreading pruritic, reddish-brown macular patches. A microbiological study used a time kill assay with C. minutissimum ATCC 23348 as an indicator of the antibacterial activity of proguanil. […] A broth only control as well as a solvent 10% DGME control were added to the vials so that the total test volume was 15 ml. One hundred μl of a freshly grown suspension of the C. minutissimum was then added at time zero so that the initial bacterial suspension was between 10^7 and 10^8 CFU/ml. All test and control suspensions were then incubated under aerobic conditions at 35° C. Aliquots of the test and control suspensions were removed at 24, 48, and 72 hours and plated onto tryptic soy agar in triplicate using a spiral plater. These plates were incubated aerobically at 35° C. for 1-3 days. Surviving colonies were then counted and the CFU/ml of test and control suspensions calculated and graphed. The effects of proguanil on the C. minutissimum were observed.

[2] = system: Trichomonas vaginalis ATCC 30001; assay: viability over time assay, T. vaginalis; format: cell-based; settings: for viability at 10 µg/mL / viability at 20 µg/mL / viability at 40 µg/mL / viability at 80 µg/mL / viability at 160 µg/mL / viability at 320 µg/mL: Trichomonas vaginalis, ATCC30001
Description: Trichomonas vaginalis infections in females usually involves vaginal discharge and vulvovaginal irritation but is usually asymptomatic in males. A viability over time assay was used to test the effects of varying concentrations of proguanil on a culture of the protozoa Trichomonas vaginalis ATCC 30001. A suspension of T. vaginalis was prepared and inoculated into microtiter plate wells containing supplemented Trichomonas Medium and proguanil concentrations of 320, 160, 80, 40, 20, and 10 μg/ml. A growth control using pyrogen-free water plus supplemented Trichomonas medium was used in place of the drug because it has no antiprotozoal effect. DGME was the solvent used to dissolve the proguanil, accordingly, a small amount of 10% DGME was used as the solvent control in the medium. These inoculated broth solutions were then allowed to incubate for a period of 6 hours. Samples were taken at 1, 3, and 6 hours and observed using a phase contrast microscope. Multiple microscope fields were counted and the number of viable and nonviable T. vaginalis recorded. In the experiment, the effects of proguanil on the T. vaginalis were observed as loss of flagella movement, loss of undulating membrane movement, and loss of cell refractivity.

[3] = system: Streptococcus agalactiae ATCC 49446; assay: time kill assay, S. agalactiae (Group B); format: cell-based
Description: Streptococcus agalactiae (Group B) infections can lead to skin diseases such as erysipelas and cellulitis. A time kill assay was used to test the effects of varying concentrations of proguanil on a culture of Streptococcus agalactiae ATCC 49446. An inoculum of S. agalactiae was prepared and inoculated in vials containing Muller Hinton II broth and proguanil concentrations of 160, 80, 16, 8, and 1.6 μg/ml. A growth control using phosphate buffered saline A (PBSA) plus Mueller Hinton II broth was used in place of the drug because it has no antimicrobial effect. DGME was the solvent used to dissolve the proguanil, accordingly, 10% DGME was used as the solvent control. These inoculated broth solutions were then allowed to incubate for a period of 72 hours. Samples were taken at 0, 4, 24, 48 and 72 hours and spiral plated so the CFU/ml could be calculated. The effects of proguanil on the S. agalactiae were observed.

CC(C)NC(=N)NC(=N)Nc1ccc(Cl)cc1 [Proguanil, N-(4-Chlorophenyl)-N′-(1-methylethyl)imidodicarbonimidic diamide]
effect on CFU/ml ([1]; 160 and 80 μg/ml, at 4 hours, 160 greater effect than 80): reduced the CFU/ml | CFU/ml ([1]; 160 and 80 μg/ml, by the 24 hour time point): 0 CFU/ml | Relative Sensitivity (Compared to Other Strains Tested) ([1]; Corynebacterium minutissimum (ATCC 23348)): Very Sensitive | Approximate Inhibitory Level ([1]; Corynebacterium minutissimum (ATCC 23348), level at which partial or total inhibition of growth is observed): 80 µg/mL | effect compared to controls ([1]; all other test concentrations (1.6, 8, 16 μg/ml)): little effect | Nonviable ([2]; 10 ug/ml, 1 Hour): 24 | Viable ([2]; 10 ug/ml, 1 Hour): 26 | Nonviable ([2]; 10 ug/ml, 3 Hour): 25 | Viable ([2]; 10 ug/ml, 3 Hour): 25 | Nonviable ([2]; 10 ug/ml, 6 Hour): 25 | Viable ([2]; 10 ug/ml, 6 Hour): 25 | Nonviable ([2]; 20 ug/ml, 1 Hour): 19 | Viable ([2]; 20 ug/ml, 1 Hour): 31 | Nonviable ([2]; 20 ug/ml, 3 Hour): 28 | Viable ([2]; 20 ug/ml, 3 Hour): 22 | Nonviable ([2]; 20 ug/ml, 6 Hour): 29 | Viable ([2]; 20 ug/ml, 6 Hour): 21 | Nonviable ([2]; 40 ug/ml, 1 Hour): 22 | Viable ([2]; 40 ug/ml, 1 Hour): 28 | Nonviable ([2]; 40 ug/ml, 3 Hour): 25 | Viable ([2]; 40 ug/ml, 3 Hour): 25 | Nonviable ([2]; 40 ug/ml, 6 Hour): 27 | Viable ([2]; 40 ug/ml, 6 Hour): 26 | Nonviable ([2]; 80 ug/ml, 1 Hour): 28 | Viable ([2]; 80 ug/ml, 1 Hour): 22 | Nonviable ([2]; 80 ug/ml, 3 Hour): 32 | Viable ([2]; 80 ug/ml, 3 Hour): 18 | Nonviable ([2]; 80 ug/ml, 6 Hour): 34 | Viable ([2]; 80 ug/ml, 6 Hour): 8 | effect on T. vaginalis viability ([2]; 80 μg/ml, at 3 and 6 hours): next greatest effect | Nonviable ([2]; 160 ug/ml, 1 Hour): 30 | Viable ([2]; 160 ug/ml, 1 Hour): 20 | Nonviable ([2]; 160 ug/ml, 3 Hour): 27 | Viable ([2]; 160 ug/ml, 3 Hour): 24 | Nonviable ([2]; 160 ug/ml, 6 Hour): 43 | Viable ([2]; 160 ug/ml, 6 Hour): 9 | effect on T. vaginalis ([2]; 160 μg/ml, at 6 hours): strong inhibition and killing effect | Nonviable ([2]; 320 ug/ml, 1 Hour): 32 | Viable ([2]; 320 ug/ml, 1 Hour): 18 | Nonviable ([2]; 320 ug/ml, 3 Hour): 40 | Viable ([2]; 320 ug/ml, 3 Hour): 13 | Nonviable ([2]; 320 ug/ml, 6 Hour): 14 | Viable ([2]; 320 ug/ml, 6 Hour): 0 | effect on T. vaginalis ([2]; 320 μg/ml, at 1 hour): early inhibition and killing effect | surviving T. vaginalis ([2]; 320 μg/ml, at 6 hours): no surviving T. vaginalis could be observed | Relative Sensitivity (Compared to Other Strains Tested) ([2]; Trichomonas vaginalis (parasitic protozoan) ATCC 30001): Very Sensitive | Approximate Inhibitory Level ([2]; Trichomonas vaginalis (parasitic protozoan) ATCC 30001, level at which partial or total inhibition of growth is observed): 80 µg/mL | viability at 10 µg/mL ([2]; 10 ug/ml, 1 Hour, read-out: PerCent Viable): 52% | viability at 10 µg/mL ([2]; 10 ug/ml, 1 Hour, read-out: Percent Viable of Growth Control): 118% | viability at 10 µg/mL ([2]; 10 ug/ml, 3 Hour, read-out: PerCent Viable): 50% | viability at 10 µg/mL ([2]; 10 ug/ml, 3 Hour, read-out: Percent Viable of Growth Control): 96.2% | viability at 10 µg/mL ([2]; 10 ug/ml, 6 Hour, read-out: PerCent Viable): 50% | viability at 10 µg/mL ([2]; 10 ug/ml, 6 Hour, read-out: Percent Viable of Growth Control): 86.2% | viability at 20 µg/mL ([2]; 20 ug/ml, 1 Hour, read-out: PerCent Viable): 62% | viability at 20 µg/mL ([2]; 20 ug/ml, 1 Hour, read-out: Percent Viable of Growth Control): 140% | viability at 20 µg/mL ([2]; 20 ug/ml, 3 Hour, read-out: PerCent Viable): 44% | viability at 20 µg/mL ([2]; 20 ug/ml, 3 Hour, read-out: Percent Viable of Growth Control): 84.6% | viability at 20 µg/mL ([2]; 20 ug/ml, 6 Hour, read-out: PerCent Viable): 42% | viability at 20 µg/mL ([2]; 20 ug/ml, 6 Hour, read-out: Percent Viable of Growth Control): 72.4% | viability at 40 µg/mL ([2]; 40 ug/ml, 1 Hour, read-out: PerCent Viable): 56% | viability at 40 µg/mL ([2]; 40 ug/ml, 1 Hour, read-out: Percent Viable of Growth Control): 126% | viability at 40 µg/mL ([2]; 40 ug/ml, 3 Hour, read-out: PerCent Viable): 50% | viability at 40 µg/mL ([2]; 40 ug/ml, 3 Hour, read-out: Percent Viable of Growth Control): 96.2% | viability at 40 µg/mL ([2]; 40 ug/ml, 6 Hour, read-out: PerCent Viable): 49.1% | viability at 40 µg/mL ([2]; 40 ug/ml, 6 Hour, read-out: Percent Viable of Growth Control): 84.6% | viability at 80 µg/mL ([2]; 80 ug/ml, 1 Hour, read-out: PerCent Viable): 44% | viability at 80 µg/mL ([2]; 80 ug/ml, 1 Hour, read-out: Percent Viable of Growth Control): 99.4% | viability at 80 µg/mL ([2]; 80 ug/ml, 3 Hour, read-out: PerCent Viable): 36% | viability at 80 µg/mL ([2]; 80 ug/ml, 3 Hour, read-out: Percent Viable of Growth Control): 69.2% | viability at 80 µg/mL ([2]; 80 ug/ml, 6 Hour, read-out: PerCent Viable): 19% | viability at 80 µg/mL ([2]; 80 ug/ml, 6 Hour, read-out: Percent Viable of Growth Control): 32.8% | viability at 160 µg/mL ([2]; 160 ug/ml, 1 Hour, read-out: PerCent Viable): 40% | viability at 160 µg/mL ([2]; 160 ug/ml, 1 Hour, read-out: Percent Viable of Growth Control): 90.4% | viability at 160 µg/mL ([2]; 160 ug/ml, 3 Hour, read-out: PerCent Viable): 47.1% | viability at 160 µg/mL ([2]; 160 ug/ml, 3 Hour, read-out: Percent Viable of Growth Control): 90.5% | viability at 160 µg/mL ([2]; 160 ug/ml, 6 Hour, read-out: PerCent Viable): 17.3% | viability at 160 µg/mL ([2]; 160 ug/ml, 6 Hour, read-out: Percent Viable of Growth Control): 29.8% | viability at 320 µg/mL ([2]; 320 ug/ml, 1 Hour, read-out: PerCent Viable): 36% | viability at 320 µg/mL ([2]; 320 ug/ml, 1 Hour, read-out: Percent Viable of Growth Control): 81.3% | viability at 320 µg/mL ([2]; 320 ug/ml, 3 Hour, read-out: PerCent Viable): 24.5% | viability at 320 µg/mL ([2]; 320 ug/ml, 3 Hour, read-out: Percent Viable of Growth Control): 47.2% | viability at 320 µg/mL ([2]; 320 ug/ml, 6 Hour, read-out: PerCent Viable): 0% | viability at 320 µg/mL ([2]; 320 ug/ml, 6 Hour, read-out: Percent Viable of Growth Control): 0% | effect on CFU/ml ([3]; 80 μg/ml): slight effect | effect on the bacteria ([3]; 160 μg/ml): dramatic inhibition | CFU/ml ([3]; 160 μg/ml, T=48 and 72 hours): 0 CFU/ml | Relative Sensitivity (Compared to Other Strains Tested) ([3]; Streptococcus agalactiae (Group B) ATCC 49446): Moderately | Approximate Inhibitory Level ([3]; Streptococcus agalactiae (Group B) ATCC 49446, level at which partial or total inhibition of growth is observed): 160 µg/mL | effect on CFU/ml ([3]; all other concentrations (16, 8, 1.6 μg/ml)): very similar and near the CFU/ml of the Mueller Hinton II broth control
